# Reference: ChEMBL document CHEMBL3885881, “DrugMatrix”
# Species: Rattus norvegicus
# Assay: DrugMatrix - Regimen: Daily Repeat
# Type: toxicity, organism-based, Sprague-Dawley
# Parameters: regimen Daily Repeat, gender Male, age 6-8 weeks
# Conditions: in vivo, sc, […], route subcutaneous, dose 9.6 mg/Kg, dose level Low; for ABSOLUTE BASOPHIL / ABSOLUTE EOSINOPHIL / ABSOLUTE LYMPHOCYTE / ABSOLUTE MONOCYTE / ABSOLUTE SEGMENTED NEUTROPHIL / BASOPHIL / EOSINOPHIL / ERYTHROCYTE COUNT / HEMATOCRIT / HEMOGLOBIN / LEUKOCYTE COUNT / LYMPHOCYTE / MEAN CORPUSCULAR HEMOGLOBIN / MEAN CORPUSCULAR HEMOGLOBIN CONCENTRATION / MEAN CORPUSCULAR VOLUME / MONOCYTE / NEUTROPHIL / NUCLEATED RED BLOOD CELLS / PLATELET COUNT: tissue Blood; for ALANINE AMINOTRANSFERASE / ALBUMIN / ALKALINE PHOSPHATASE / ASPARTATE AMINOTRANSFERASE / BLOOD UREA NITROGEN / CARBON DIOXIDE / CHLORIDE / CHOLESTEROL / CREATINE PHOSPHOKINASE / CREATININE / GLUCOSE / LACTATE DEHYDROGENASE / LIPASE / PHOSPHORUS / POTASSIUM / SODIUM / TOTAL BILIRUBIN / TOTAL PROTEIN / URIC ACID: tissue Plasma
smiles,measurement,setting,value
CCCCNc1ccc(C(=O)OCCN(C)C)cc1 [TETRACAINE],ABSOLUTE BASOPHIL,"72 h, time 3 day",0 CELLS/uL
same,ABSOLUTE EOSINOPHIL,"72 h, time 3 day",226.67 CELLS/uL
same,ABSOLUTE LYMPHOCYTE,"72 h, time 3 day",14925.33 CELLS/uL
same,ABSOLUTE MONOCYTE,"72 h, time 3 day",512.67 CELLS/uL
same,ABSOLUTE SEGMENTED NEUTROPHIL,"72 h, time 3 day",768.67 CELLS/uL
same,BASOPHIL,"72 h, time 3 day",0%
same,EOSINOPHIL,"72 h, time 3 day",1.67%
same,ERYTHROCYTE COUNT,"72 h, time 3 day",5.36 x10E6/uL
same,HEMATOCRIT,"72 h, time 3 day",34.5%
same,HEMOGLOBIN,"72 h, time 3 day",13.5 G/DL
same,LEUKOCYTE COUNT,"72 h, time 3 day",16.43 x10E3/uL
same,LYMPHOCYTE,"72 h, time 3 day",90.67%
same,MEAN CORPUSCULAR HEMOGLOBIN,"72 h, time 3 day",25.17 pg
same,MEAN CORPUSCULAR HEMOGLOBIN CONCENTRATION,"72 h, time 3 day",39.17 G/DL
same,MEAN CORPUSCULAR VOLUME,"72 h, time 3 day",64.4 fL
same,MONOCYTE,"72 h, time 3 day",2.33%
same,NEUTROPHIL,"72 h, time 3 day",5.33%
same,NUCLEATED RED BLOOD CELLS,"72 h, time 3 day",0.33 /100WBC
same,PLATELET COUNT,"72 h, time 3 day",1368.67 x10E3/uL
same,ALANINE AMINOTRANSFERASE,"72 h, time 3 day",52.33 u/L
same,ALBUMIN,"72 h, time 3 day",4.1 G/DL
same,ALKALINE PHOSPHATASE,"72 h, time 3 day",338.33 u/L
same,ASPARTATE AMINOTRANSFERASE,"72 h, time 3 day",87.67 u/L
same,BLOOD UREA NITROGEN,"72 h, time 3 day",15 mg/dL
same,CARBON DIOXIDE,"72 h, time 3 day",22.67 mmol/L
same,CHLORIDE,"72 h, time 3 day",104.67 MEQ/L
same,CHOLESTEROL,"72 h, time 3 day",79.67 mg/dL
same,CREATINE PHOSPHOKINASE,"72 h, time 3 day",530.33 u/L
same,CREATININE,"72 h, time 3 day",0.16 mg/dL
same,GLUCOSE,"72 h, time 3 day",187 mg/dL
same,LACTATE DEHYDROGENASE,"72 h, time 3 day",122.67 u/L
same,LIPASE,"72 h, time 3 day",9.33 u/L
same,PHOSPHORUS,"72 h, time 3 day",13.8 mg/dL
same,POTASSIUM,"72 h, time 3 day",5.89 MEQ/L
same,SODIUM,"72 h, time 3 day",147.2 MEQ/L
same,TOTAL BILIRUBIN,"72 h, time 3 day",0.2 mg/dL
same,TOTAL PROTEIN,"72 h, time 3 day",5.73 G/DL
same,URIC ACID,"72 h, time 3 day",1.9 mg/dL
same,ABSOLUTE BASOPHIL,"120 h, time 5 day",0 CELLS/uL
same,ABSOLUTE EOSINOPHIL,"120 h, time 5 day",0 CELLS/uL
same,ABSOLUTE LYMPHOCYTE,"120 h, time 5 day",14217 CELLS/uL
same,ABSOLUTE MONOCYTE,"120 h, time 5 day",0 CELLS/uL
same,ABSOLUTE SEGMENTED NEUTROPHIL,"120 h, time 5 day",2349.67 CELLS/uL
same,BASOPHIL,"120 h, time 5 day",0%
same,EOSINOPHIL,"120 h, time 5 day",0%
same,ERYTHROCYTE COUNT,"120 h, time 5 day",5.59 x10E6/uL
same,HEMATOCRIT,"120 h, time 5 day",35.87%
same,HEMOGLOBIN,"120 h, time 5 day",14.33 G/DL
same,LEUKOCYTE COUNT,"120 h, time 5 day",16.57 x10E3/uL
same,LYMPHOCYTE,"120 h, time 5 day",85.67%
same,MEAN CORPUSCULAR HEMOGLOBIN,"120 h, time 5 day",25.6 pg
same,MEAN CORPUSCULAR HEMOGLOBIN CONCENTRATION,"120 h, time 5 day",39.97 G/DL
same,MEAN CORPUSCULAR VOLUME,"120 h, time 5 day",64.13 fL
same,MONOCYTE,"120 h, time 5 day",0%
same,NEUTROPHIL,"120 h, time 5 day",14.33%
same,NUCLEATED RED BLOOD CELLS,"120 h, time 5 day",0.33 /100WBC
same,PLATELET COUNT,"120 h, time 5 day",1151 x10E3/uL
same,ALANINE AMINOTRANSFERASE,"120 h, time 5 day",58 u/L
same,ALBUMIN,"120 h, time 5 day",4.1 G/DL
same,ALKALINE PHOSPHATASE,"120 h, time 5 day",278.67 u/L
same,ASPARTATE AMINOTRANSFERASE,"120 h, time 5 day",76.33 u/L
same,BLOOD UREA NITROGEN,"120 h, time 5 day",17.67 mg/dL
same,CARBON DIOXIDE,"120 h, time 5 day",23.33 mmol/L
same,CHLORIDE,"120 h, time 5 day",103.67 MEQ/L
same,CHOLESTEROL,"120 h, time 5 day",76.33 mg/dL
same,CREATINE PHOSPHOKINASE,"120 h, time 5 day",262.33 u/L
same,CREATININE,"120 h, time 5 day",0.16 mg/dL
same,GLUCOSE,"120 h, time 5 day",153.67 mg/dL
same,LACTATE DEHYDROGENASE,"120 h, time 5 day",205 u/L
same,LIPASE,"120 h, time 5 day",9.67 u/L
same,PHOSPHORUS,"120 h, time 5 day",12.83 mg/dL
same,POTASSIUM,"120 h, time 5 day",6.7 MEQ/L
same,SODIUM,"120 h, time 5 day",147.8 MEQ/L
same,TOTAL BILIRUBIN,"120 h, time 5 day",0.23 mg/dL
same,TOTAL PROTEIN,"120 h, time 5 day",5.73 G/DL
same,URIC ACID,"120 h, time 5 day",1.53 mg/dL
